This is an account of results in ChEMBL document CHEMBL6087422, “A promising class of antiprotozoal agents, design and synthesis of novel Pyrimidine-Cinnamoyl hybrids” (Eur J Med Chem, 2025).

Data set [1] deals with Plasmodium falciparum. In words: Antimalarial activity against chloroquine-sensitive Plasmodium falciparum NF54 assessed as inhibition of parasite growth measured after 24 hrs by parasite lactate dehydrogenase (pLDH) assay. Type of data set: functional, organism-based. The following applies: NF54, 24 h.
A short description of data set [2]: Haemolytic activity in human RBC assessed as haemolysis at 50 uM for 48 hrs by haemolysis assay. It counts as toxicity, cell-based, Erythrocyte. The following applies: human red blood cells, read-out: Activity.
Data set [3] relates to Plasmodium falciparum. In words: Antimalarial activity against chloroquine-resistant intra-erythrocytic stage Plasmodium falciparum. Type of data set: functional, organism-based.
The test system of the next data set is Plasmodium berghei. In words: In vivo antiplasmodial activity against Plasmodium berghei assessed as growth inhibition at 100 mg/kg measured after 21 days relative to control. It counts as functional. Also on record: scale not given: the % may be the effect or the level left. The following applies: time 21 day.
A short description of data set [4]: Cytotoxicity against HEK293 cells assessed as cell viability incubated for 48 hrs by MTT assay. The following applies: human. It counts as toxicity, cell-based. On the technique in general: Tetrazolium dyes change colour on reduction, which living cells bring about.
Data set [5] is described as follows: Selectivity index, ratio of IC50 for cytotoxicity against HEK293 cells to IC50 for antimalarial activity against chloroquine sensitive Plasmodium falciparum NF54 assessed as inhibition of parasite growth measured after 24 hrs by parasite lactate dehydrogenase (pLDH) assay. Type of data set: toxicity, cell-based. The following applies: human, HEK293 cells versus Plasmodium falciparum NF54, read-out: Ratio IC50.

Data set [6] deals with Plasmodium falciparum. In words: Binding affinity to 6xHis tagged recombinant Plasmodium falciparum Hsp70-1 extracted from Escherichia coli assessed as association rate constant (Ka) incubated for 3 mins by SPR analysis. On the technique in general: Surface plasmon resonance follows binding to a sensor surface in real time, without labels.
Data set [7] concerns Plasmodium falciparum. In words: Binding affinity to 6xHis tagged recombinant Plasmodium falciparum Hsp70-z extracted from Escherichia coli assessed as association rate constant (Ka) incubated for 3 mins by SPR analysis.
Data set [8] is described as follows: Binding affinity to 6xHis tagged recombinant Plasmodium falciparum Hsp70-1 extracted from Escherichia coli assessed as dissociation rate constant (Kd) incubated for 10 mins by SPR analysis.
Data set [9] is described as follows: Binding affinity to 6xHis tagged recombinant Plasmodium falciparum Hsp70-z extracted from Escherichia coli assessed as dissociation rate constant (Kd) incubated for 10 mins by SPR analysis.
A short description of data set [10]: Binding affinity to 6xHis tagged recombinant Plasmodium falciparum Hsp70-1 extracted from Escherichia coli assessed as dissociation constant (KD) incubated for 10 mins by SPR analysis.
Data set [11] can be described thus: Binding affinity to 6xHis tagged recombinant Plasmodium falciparum Hsp70-z extracted from Escherichia coli assessed as dissociation constant (KD) incubated for 10 mins by SPR analysis.
Data set [12] relates to Plasmodium falciparum. In words: Antimalarial activity against chloroquine-sensitive Plasmodium falciparum NF54 assessed as reduction of schizonts at IC50 concentration incubated for 48 hrs by microscopic analysis. Type of data set: functional, organism-based.
The subject of data set [13] is Plasmodium falciparum. In words: Antimalarial activity against chloroquine-sensitive Plasmodium falciparum NF54 assessed as reduction of second generation rings at IC50 concentration incubated for 48 hrs by microscopic analysis. Type of data set: functional, organism-based.
Data set [14] relates to Plasmodium falciparum. In words: Binding affinity to 6xHis tagged recombinant Plasmodium falciparum Hsp70-1 extracted from Escherichia coli by SPR analysis.
For data set [15], the system named is Plasmodium falciparum. In words: Binding affinity to 6xHis tagged recombinant Plasmodium falciparum Hsp70-z extracted from Escherichia coli by SPR analysis.
The subject of data set [16] is Plasmodium falciparum. In words: Antimalarial activity against […] Plasmodium falciparum 3D7 assessed as growth inhibition by isotopic micro drug susceptibility assay. It counts as functional, organism-based.
Data set [17] deals with Plasmodium falciparum. In words: Antimalarial activity against chloroquine-sensitive Plasmodium falciparum W2 assessed as growth inhibition by isotopic micro drug susceptibility assay. It counts as functional, organism-based.

Calls of active or inactive are those of the source. The calls are words filed in the database; no cut-off is given here.

As to `COc1ccc(-c2cc(-c3ccc(C)cc3)nc(N3CCNCC3)n2)cc1`, the IC50 in the data set with Plasmodium falciparum [1] turned out to be 5 µM. Moreover, the hemolysis at 48 h, 50 µM in data set [2] is 0.01%.
As for `COc1cc(/C=C/C(=O)CC(=O)/C=C/c2ccc(O)c(OC)c2)ccc1O` [CURCUMIN], the IC50 with Plasmodium falciparum [3] was roughly 5 µM. Besides, the Activity in the data set with Plasmodium berghei is listed as 100%.
Turning to `CCc1ccc(-c2cc(-c3ccc(OC)c(OC)c3)nc(N3CCN(C(=O)/C=C/c4ccc(OC)cc4)CC3)n2)cc1`, in the data set with Plasmodium falciparum [1], the IC50 worked out at 0.18 µM. Besides, the IC50 at 48 h in [4] worked out at 3.36 µM. Besides, in data set [5], the selectivity ratio at 24 h amounted to 18.6. For the same compound, the Ka in the data set with Plasmodium falciparum [6] was 5.92 10^6/M.s; with Plasmodium falciparum [7] it was 6.24 10^6/M.s. Besides, the dissociation constant Kd in data set [8] is 9.29 10^-2(1/s); in data set [9], 9.79 10^-2(1/s); in [10], 0.00157 µM; in data set [11] it was 0.0157 µM. Moreover, the result with Plasmodium falciparum [12] and in the data set on Plasmodium falciparum [13] was Active. Further, in data set [2], the hemolysis at 48 h, 50 µM was 0.01%. Besides, the Activity result in the data set on Plasmodium falciparum [14] and with Plasmodium falciparum [15] was “Dose-dependent-effect” each time.
For the compound `CCc1ccc(-c2cc(-c3ccc(OC)c(OC)c3)nc(N3CCN(C(=O)/C=C/c4ccccc4)CC3)n2)cc1`, the 50% inhibitory concentration (IC50) in the data set with Plasmodium falciparum [1] came to 0.21 µM. Further, the half-inhibitory concentration (IC50) at 48 h in data set [4] worked out at 3.55 µM. Moreover, the selectivity ratio at 24 h in data set [5] came to 16.8. Further, the Ka in the data set on Plasmodium falciparum [6] is 7.97 10^6/M.s; in the data set on Plasmodium falciparum [7] it was 8.28 10^6/M.s. In addition, the Kd was 7.72 10^-2(1/s) in [8], 8.97 10^-2(1/s) in data set [9], 0.00969 µM in data set [10] and 0.0108 µM in data set [11]. In addition, the result in the data set on Plasmodium falciparum [12] and with Plasmodium falciparum [13] was Active. Moreover, the hemolysis at 48 h, 50 µM in data set [2] was determined as 0.01%. In addition, the Activity entry in the data set on Plasmodium falciparum [14] and in the data set with Plasmodium falciparum [15] was “Dose-dependent-effect” in each case.
Take `COc1ccc(-c2cc(-c3ccc(C)cc3)nc(N3CCN(C(=O)/C=C/c4ccccc4)CC3)n2)cc1`: the IC50 with Plasmodium falciparum [1] was determined as 2.72 µM. Moreover, the hemolysis at 48 h, 50 µM in data set [2] was found to be 0.01%.
For `COc1ccc(/C=C/C(=O)N2CCN(c3nc(-c4ccc(OC)cc4)cc(-c4ccc(OC)cc4)n3)CC2)cc1`, the half-inhibitory concentration (IC50) in the data set with Plasmodium falciparum [1] turned out to be 5 µM. Moreover, the hemolysis at 48 h, 50 µM in data set [2] amounted to 0.01%.
In the case of `CO[C@H]1/C=C/O[C@@]2(C)Oc3c(C)c(O)c4c(O)c(c(/C=N/N5CCN(C)CC5)c(O)c4c3C2=O)NC(=O)/C(C)=C\C=C\[C@H](C)[C@H](O)[C@@H](C)[C@@H](O)[C@@H](C)[C@H](OC(C)=O)[C@@H]1C` [RIFAMPIN], the values for the IC50 in the data set with Plasmodium falciparum [16] and in the data set on Plasmodium falciparum [17] were 3.2 µM and 1.3 µM, respectively.
On to `Cc1ccc(/C=C/C(=O)N2CCN(c3nc(-c4ccc(Cl)cc4)cc(-c4cccnc4)n3)CC2)cc1`, for which the 50% inhibitory concentration (IC50) in the data set with Plasmodium falciparum [1] is 3.67 µM. For the same compound, in [2], the hemolysis at 48 h, 50 µM amounted to 0.01%.
In the case of `COc1ccc(-c2cc(-c3ccc(C)cc3)nc(N3CCN(C(=O)/C=C/c4ccc(OC)c(OC)c4)CC3)n2)cc1`, the IC50 with Plasmodium falciparum [1] is 0.6 µM. Further, the IC50 at 48 h in data set [4] came to 0.93 µM. The selectivity ratio at 24 h in [5] was determined as 1.54. Further, the hemolysis at 48 h, 50 µM in [2] came out at 0.01%.
Consider `COc1ccc(-c2cc(-c3ccc(OC)cc3)nc(N3CCN(C(=O)/C=C/c4ccc(C)cc4)CC3)n2)cc1`, for which, in the data set with Plasmodium falciparum [1], the IC50 was 3.58 µM. The hemolysis at 48 h, 50 µM in [2] was found to be 0.01%.
As to `CCc1ccc(-c2cc(-c3ccc(OC)c(OC)c3)nc(N3CCN(C(=O)/C=C/c4ccc(Cl)cc4)CC3)n2)cc1`, in the data set on Plasmodium falciparum [1], the half-maximal inhibitory concentration (IC50) turned out to be 0.2 µM. In data set [4], the half-inhibitory concentration (IC50) at 48 h stood at 0.87 µM. Further, in data set [5], the selectivity ratio at 24 h is 4.34. In [2], the hemolysis at 48 h, 50 µM was found to be 0.01%.
As for `CCN(CC)CCCC(C)Nc1ccnc2cc(Cl)ccc12` (configuration not stated) [CHLOROQUINE], the hemolysis at 48 h, 50 µM in data set [2] amounted to 0.01%.
Take `COc1ccc(-c2cc(-c3ccc(OC)cc3)nc(N3CCN(C(=O)/C=C/c4ccc(OC)c(OC)c4)CC3)n2)cc1`: in the data set with Plasmodium falciparum [1], the IC50 was found to be 5 µM. For the same compound, the hemolysis at 48 h, 50 µM in data set [2] was 0.01%.
As to `O=C(/C=C/c1ccccc1)N1CCN(c2nc(-c3cccnc3)cc(-c3ccoc3)n2)CC1`, in the data set with Plasmodium falciparum [1], the IC50 turned out to be 5 µM. Also, in data set [2], the hemolysis at 48 h, 50 µM was found to be 0.01%.
For the compound `COc1ccc(-c2cc(-c3ccc(OC)cc3)nc(N3CCN(C(=O)/C=C/c4ccccc4)CC3)n2)cc1`, the half-inhibitory concentration (IC50) in the data set with Plasmodium falciparum [1] came to 4.09 µM. Further, in data set [2], the hemolysis at 48 h, 50 µM was found to be 0.01%.
For `COc1ccc(-c2cc(-c3ccc(C)cc3)nc(N3CCN(C(=O)/C=C/c4ccc(C)cc4)CC3)n2)cc1` the same measures were 2.33 µM and 0.01%.
With `COc1ccc(-c2cc(-c3ccc(Cl)cc3)nc(N3CCN(C(=O)/C=C/c4ccccc4)CC3)n2)cc1`, the IC50 with Plasmodium falciparum [1] was determined as 6.02 µM. For the same compound, in data set [2], the hemolysis at 48 h, 50 µM is 0.01%.
Turning to `COc1ccc(-c2cc(-c3ccc(C)cc3)nc(N3CCN(C(=O)/C=C/c4ccc(Cl)cc4)CC3)n2)cc1`, the half-maximal inhibitory concentration (IC50) in the data set on Plasmodium falciparum [1] was determined as 1.72 µM. In data set [2], the hemolysis at 48 h, 50 µM was found to be 0.01%.
For `COc1ccc(-c2cc(-c3ccc(OC)cc3)nc(N3CCN(C(=O)/C=C/c4ccc[nH]4)CC3)n2)cc1`, in the data set with Plasmodium falciparum [1], the 50% inhibitory concentration (IC50) was 7.43 µM. In addition, in data set [4], the half-maximal inhibitory concentration (IC50) at 48 h came to 3.69 µM. Moreover, the selectivity ratio at 24 h in [5] is 0.5. The hemolysis at 48 h, 50 µM in [2] came to 0.01%.
Regarding `CCc1ccc(-c2cc(-c3ccc(OC)c(OC)c3)nc(N3CCN(C(=O)/C=C/c4ccc(C)cc4)CC3)n2)cc1`, the 50% inhibitory concentration (IC50) with Plasmodium falciparum [1] was determined as 1.56 µM. For the same compound, the hemolysis at 48 h, 50 µM in [2] is 0.01%.
On to `C=C[C@H]1CN2CC[C@H]1C[C@H]2[C@H](O)c1ccnc2ccc(OC)cc12` [QUININE], for which the IC50 in the data set on Plasmodium falciparum [1] turned out to be 0.11 µM. The selectivity ratio at 24 h in [5] is 1240. In data set [2], the hemolysis at 48 h, 50 µM came out at 0.01%.
Consider `COc1ccc(-c2cc(-c3ccc(OC)cc3)nc(N3CCN(C(=O)/C=C/c4ccc(Cl)cc4)CC3)n2)cc1`, for which the concentration for half-maximal inhibition (IC50) with Plasmodium falciparum [1] turned out to be 2.71 µM. Further, the hemolysis at 48 h, 50 µM in data set [2] amounted to 0.01%.
On the same counts, the results for `CCc1ccc(-c2cc(-c3ccc(OC)c(OC)c3)nc(N3CCN(C(=O)/C=C/c4ccc[nH]4)CC3)n2)cc1` are 0.72 µM and 0.01%.
As to `CC[C@@]1(O)C(=O)OCc2c1cc1n(c2=O)Cc2cc3ccccc3nc2-1` [CAMPTOTHECIN], in data set [4], the 50% inhibitory concentration (IC50) at 48 h was determined as 0.2 µM.

Usually IC50 stands for the concentration that gives 50% inhibition. Usually Kd stands for the equilibrium constant for the complex coming apart.
